Test results: US20240293397A1 (H. Lundbeck A/S, priority 2010, published 2024)
Where a name gives a salt, the structure may show the parent alone. Read-outs that look alike come from different tables or passages of the source.

Tests used:
[1] = long-term study (26-32 weeks); cited from earlier work
[2] = OCD patients; end of 2.5 years study; cited from earlier work
[3] = long-term (up to two years) relapse prevention study; cited from earlier work
[4] = Long-term effects on body weight, relapse prevention study in patients with major depressive disorder; format: in vivo, human; settings: for Δ weight / ≥7% weight gain: MDD
Source text: The recruitment of patients took place over time, and since the end of the study was defined by the last patient having completed the 24 weeks study, some patients received up to 64 weeks double-blind placebo-controlled treatment. This study is also reported in poster NR4-14 presented at the 164th Annual Meeting of the American Psychiatric Association, May 14-18 2011, Honolulu, Hawaii, USA.
(§1) The tables below show the mean difference in weight relative to the start of the open label period and to the time of randomisation and the fraction of patients experiencing equal to or more than […] during the study, i.e. potentially clinically significant increase.

[5] = Long-term effects on body weight, relapse prevention study in patients with generalised anxiety disorder; format: in vivo, human; settings: for Δ weight / ≥7% weight gain: GAD
Source text: The recruitment of patients took place over time, and since the end of the study was defined by the last patient having completed at least 24 weeks, some patients received up to 56 weeks double-blind placebo-controlled treatment.
as §1

[6] = Properties of polymorphic forms and salts (stability, solubility, hygroscopicity); format: physicochemical
Experimental: The polymorphic forms have different properties.
When a compound is administered as an oral drop formulation, a few drops of a concentrated, liquid formulation of said drug is measured out and added to a glass of water, juice or the like that the patient drinks. As an example, the antidepressant cipramil is provided as an oral drop formulation at 40 mg/ml.

[7] = target: T1, 5-HT3 receptor (Homo sapiens, UniProt P46098); settings: in vitro; cited from earlier work
T1 sequence (P46098 24-478): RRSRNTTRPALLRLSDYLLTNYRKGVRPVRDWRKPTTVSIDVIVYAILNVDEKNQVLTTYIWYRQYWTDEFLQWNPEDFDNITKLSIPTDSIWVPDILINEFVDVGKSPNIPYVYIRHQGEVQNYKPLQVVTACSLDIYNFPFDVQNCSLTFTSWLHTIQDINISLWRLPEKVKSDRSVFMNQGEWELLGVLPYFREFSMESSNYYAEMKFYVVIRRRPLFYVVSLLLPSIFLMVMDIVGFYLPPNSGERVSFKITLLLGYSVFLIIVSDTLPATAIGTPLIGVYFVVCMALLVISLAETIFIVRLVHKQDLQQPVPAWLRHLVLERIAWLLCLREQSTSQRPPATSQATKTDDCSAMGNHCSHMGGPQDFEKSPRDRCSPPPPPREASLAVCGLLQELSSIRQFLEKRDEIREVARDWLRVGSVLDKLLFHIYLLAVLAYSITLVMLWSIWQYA

[8] = target: 5-HT7 receptor (Homo sapiens, UniProt P34969); settings: in vitro; cited from earlier work
5-HT7 receptor, sequence (P34969 whole entry): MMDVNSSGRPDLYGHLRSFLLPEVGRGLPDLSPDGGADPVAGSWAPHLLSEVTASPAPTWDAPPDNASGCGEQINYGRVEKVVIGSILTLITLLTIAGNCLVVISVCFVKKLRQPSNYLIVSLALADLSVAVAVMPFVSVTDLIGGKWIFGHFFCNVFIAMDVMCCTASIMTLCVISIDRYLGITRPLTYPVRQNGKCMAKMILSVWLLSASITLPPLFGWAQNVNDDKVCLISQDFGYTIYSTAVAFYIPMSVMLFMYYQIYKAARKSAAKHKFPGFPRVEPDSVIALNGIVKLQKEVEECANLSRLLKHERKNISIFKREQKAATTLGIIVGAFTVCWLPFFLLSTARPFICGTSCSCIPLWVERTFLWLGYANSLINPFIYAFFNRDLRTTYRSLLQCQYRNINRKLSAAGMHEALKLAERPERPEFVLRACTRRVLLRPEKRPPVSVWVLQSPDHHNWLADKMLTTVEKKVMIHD

[9] = target: 5-HT1B receptor (Homo sapiens, UniProt P28222); settings: in vitro; cited from earlier work
5-HT1B receptor, sequence (P28222 whole entry): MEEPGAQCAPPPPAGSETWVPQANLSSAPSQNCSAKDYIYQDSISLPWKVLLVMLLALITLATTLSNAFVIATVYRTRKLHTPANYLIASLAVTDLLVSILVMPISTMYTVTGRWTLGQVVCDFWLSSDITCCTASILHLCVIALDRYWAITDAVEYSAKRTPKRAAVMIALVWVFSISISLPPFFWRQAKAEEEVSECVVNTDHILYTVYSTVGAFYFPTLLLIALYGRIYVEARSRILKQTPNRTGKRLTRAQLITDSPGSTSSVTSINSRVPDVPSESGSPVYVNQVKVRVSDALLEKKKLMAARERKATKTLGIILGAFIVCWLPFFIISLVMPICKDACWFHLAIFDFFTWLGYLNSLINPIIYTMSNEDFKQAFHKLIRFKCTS

[10] = target: 5-HT transporter (Homo sapiens, UniProt P31645); settings: in vitro; cited from earlier work
5-HT transporter, sequence (P31645 whole entry, species assumed): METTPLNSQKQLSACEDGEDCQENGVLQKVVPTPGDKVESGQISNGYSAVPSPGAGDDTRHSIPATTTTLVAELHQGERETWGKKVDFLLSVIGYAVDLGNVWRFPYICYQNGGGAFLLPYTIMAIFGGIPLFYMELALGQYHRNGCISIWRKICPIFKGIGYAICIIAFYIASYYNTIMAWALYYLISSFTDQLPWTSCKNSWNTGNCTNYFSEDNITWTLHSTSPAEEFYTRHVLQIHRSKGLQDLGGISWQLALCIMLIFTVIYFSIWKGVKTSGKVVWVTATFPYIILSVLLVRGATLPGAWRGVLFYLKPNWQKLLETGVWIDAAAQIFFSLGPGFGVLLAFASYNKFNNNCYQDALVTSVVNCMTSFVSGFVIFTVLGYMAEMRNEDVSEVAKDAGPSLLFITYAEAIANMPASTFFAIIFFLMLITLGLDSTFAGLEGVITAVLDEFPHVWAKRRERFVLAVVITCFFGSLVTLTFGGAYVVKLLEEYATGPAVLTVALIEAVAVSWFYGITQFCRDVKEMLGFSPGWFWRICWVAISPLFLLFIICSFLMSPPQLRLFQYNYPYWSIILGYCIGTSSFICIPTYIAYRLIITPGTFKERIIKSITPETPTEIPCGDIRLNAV

[11] = test system: neurotransmitters serotonin, noradrenalin, dopamine, acetylcholine and histamine; settings: in vivo nonclinical; cited from earlier work
[12] = six weeks, cited from earlier work
[13] = six week study; cited from earlier work
[14] = 566 patients, eight weeks; cited from earlier work
[15] = 324 patients, eight weeks; cited from earlier work
[16] = week 12, relative to start of open label period (t = 0), 204 patients
[17] = week 24, relative to start of open label period (t = 0), 199 patients
[18] = week 24, relative to time of randomisation (t = 12 weeks), 199 patients
[19] = week 36, relative to start of open label period (t = 0), 157 patients
[20] = week 36, relative to time of randomisation (t = 12 weeks), 157 patients
[21] = week 48, relative to start of open label period (t = 0), 90 patients
[22] = week 48, relative to time of randomisation (t = 12 weeks), 90 patients
[23] = week 60, relative to start of open label period (t = 0), 52 patients
[24] = week 60, relative to time of randomisation (t = 12 weeks), 52 patients
[25] = week 72, relative to start of open label period (t = 0), 19 patients
[26] = week 72, relative to time of randomisation (t = 12 weeks), 19 patients
[27] = week 76, relative to start of open label period (t = 0), 3 patients
[28] = week 76, relative to time of randomisation (t = 12 weeks), 3 patients
[29] = week 20, relative to start of open label period (t = 0), 227 patients
[30] = week 32, relative to start of open label period (t = 0), 220 patients
[31] = week 32, relative to time of randomisation (t = 20 weeks), 221 patients
[32] = week 44, relative to start of open label period (t = 0), 179 patients
[33] = week 44, relative to time of randomisation (t = 20 weeks), 180 patients
[34] = week 56, relative to start of open label period (t = 0), 84 patients
[35] = week 56, relative to time of randomisation (t = 20 weeks), 84 patients
[36] = week 68, relative to start of open label period (t = 0), 28 patients
[37] = week 68, relative to time of randomisation (t = 20 weeks), 28 patients
[38] = week 76, relative to start of open label period (t = 0), 4 patients
[39] = week 76, relative to time of randomisation (t = 20 weeks), 4 patients

## CNCCC(Oc1ccc(C(F)(F)F)cc1)c1ccccc1 (stereo not shown) [fluoxetine]
[1]
  proportion of patients showing a PCS increase in body weight: 6.6%
[2]
  percentage of patients with PCS weight increase (7% or above compared to baseline): 8.7%

## CN[C@H]1CC[C@@H](c2ccc(Cl)c(Cl)c2)c2ccccc21 [sertraline]
[1]
  proportion of patients showing a PCS increase in body weight: 4.2%
[2]
  percentage of patients with PCS weight increase (7% or above compared to baseline): 4.5%

## CN(C)CCC=C1c2ccccc2CCc2ccccc21 [amitriptyline]
[3]
  proportion of patients showing a PCS increase in body weight: 22%

## Cc1ccc(Sc2ccccc2N2CCNCC2)c(C)c1 [Compound I HBr, 1-[2-(2,4-dimethyl-phenylsulfanyl)phenyl]piperazine HBr]
[4]; MDD patients, data of tables 1 and 2
  weight gain versus placebo after long-term treatment: no meaningful difference
[4]; [16]
  Δ weight: 0.0 kg
  ≥7% weight gain: 2.0%
[4]; [17]
  Δ weight: 0.3 kg
  ≥7% weight gain: 6.5%
[4]; [18]
  Δ weight: 0.4 kg
  ≥7% weight gain: 2.0%
[4]; [19]
  Δ weight: 0.6 kg
  ≥7% weight gain: 8.9%
[4]; [20]
  Δ weight: 0.6 kg
  ≥7% weight gain: 6.4%
[4]; [21]
  Δ weight: 0.7 kg
  ≥7% weight gain: 8.9%
[4]; [22]
  Δ weight: 0.9 kg
  ≥7% weight gain: 8.9%
[4]; [23]
  Δ weight: 0.4 kg
  ≥7% weight gain: 9.6%
[4]; [24]
  Δ weight: 0.8 kg
  ≥7% weight gain: 13.5%
[4]; [25]
  Δ weight: -0.2 kg
  ≥7% weight gain: 10.5%
[4]; [26]
  Δ weight: 0.3 kg
  ≥7% weight gain: 10.5%
[4]; [27]
  Δ weight: -2.3 kg
  ≥7% weight gain: 0.0%
[4]; [28]
  Δ weight: -0.8 kg
  ≥7% weight gain: 0.0%
[5]; combined data of tables 1-4 (MDD and GAD patients)
  weight gain versus placebo after long-term treatment: no meaningful difference
[5]; [29]
  Δ weight: 0.3 kg
  ≥7% weight gain: 2.6%
[5]; [30]
  Δ weight: 0.5 kg
  ≥7% weight gain: 3.6%
[5]; [31]
  Δ weight: 0.3 kg
  ≥7% weight gain: 0.9%
[5]; [32]
  Δ weight: 0.8 kg
  ≥7% weight gain: 8.4%
[5]; [33]
  Δ weight: 0.5 kg
  ≥7% weight gain: 4.4%
[5]; [34]
  Δ weight: 1.5 kg
  ≥7% weight gain: 17.9%
[5]; [35]
  Δ weight: 1.1 kg
  ≥7% weight gain: 10.7%
[5]; [36]
  Δ weight: 1.5 kg
  ≥7% weight gain: 10.7%
[5]; [37]
  Δ weight: 1.7 kg
  ≥7% weight gain: 10.7%
[5]; [38]
  Δ weight: 0.9 kg
  ≥7% weight gain: 0.0%
[5]; [39]
  Δ weight: 1.6 kg
  ≥7% weight gain: 0.0%

## CN(C)CCCC1(c2ccc(F)cc2)OCc2cc(C#N)ccc21 (stereo not shown) [citalopram]
[2]
  percentage of patients with PCS weight increase (7% or above compared to baseline): 14.3%

## Cc1ccc(Sc2ccccc2N2CCNCC2)c(C)c1 (racemic) [DL lactate salt of Compound I, DL-lactate salt of 1-[2-(2,4-dimethylphenylsulphanyl)-phenyl]piperazine]
[6]
  solubility: high solubility

## Cc1ccc(Sc2ccccc2N2CCNCC2)c(C)c1 [Compound I, 1-[2-(2,4-dimethyl-phenylsulfanyl)phenyl]piperazine]
[7]
  activity at 5-HT3 receptor: antagonist
[8]
  activity at 5-HT7 receptor: antagonist
[9]
  activity at 5-HT1B receptor: partial agonist
[10]
  activity at 5-HT transporter: inhibitor
[11]
  levels of serotonin, noradrenalin, dopamine, acetylcholine and histamine in specific areas of the brain: enhances levels
[12]; MDD patients
  changes in clinical laboratory results, vital signs, weight, or ECG parameters: no clinically relevant changes
[12]; approximately 100 patients in each arm, MDD
  treatment of depressive and anxious symptoms versus placebo: separates significantly from placebo

## Fc1ccc([C@@H]2CCNC[C@H]2COc2ccc3c(c2)OCO3)cc1 [paroxetine]
[1]
  proportion of patients showing a PCS increase in body weight: 25.5%
[13]
  weight gain: no weight gain was noted
[14]
  weight change: small weight loss
[15]
  effects on weight: no substantial effects on weight
[2]
  percentage of patients with PCS weight increase (7% or above compared to baseline): 14.3%

## CN(C)CCCN1c2ccccc2CCc2ccc(Cl)cc21 [clomiptramine]
[2]
  percentage of patients with PCS weight increase (7% or above compared to baseline): 34.8%
